For this assay, the system named is PE/CA-PJ49 tumor cells. Put plainly: Cell cycle phase distribution by PI flow cytometry, tumor cells. Type of assay: cell-based, human. The following applies: 24 h, RSV 40 μM. As to the method: For analysis of cell-cycle distribution, the cells were collected after treatment, fixed with 70% ethanol for at least one hour at 4 °C. The cells were stained with propidium iodide (PI) an agent which intercalates into the major groove of double-stranded DNA and produces a highly fluorescent adduct that can be excited at 488 nm with a broad emission around 600 nm. Since PI can also bind to double-stranded RNA, it is necessary to treat the cells with RNase for optimal DNA resolution. Cells (1×10^6 cells/mL) were washed in PBS and centrifuge at 300× g, 5 min at 4 °C. The pellet of the cells were incubated for 10 min at 37 °C with 0.5 mg/sample RNase A and then was added 10 μg/sample of PI staining solution to cell pellet, mix well and incubated 10 min at 37 °C. The samples stored at 4 °C until analyzed by flow cytometry. A minimum of 20,000 events for each sample were collected using a FACS CantoII flow cytometer and ModFIT software (BectonDickinson) and used to determine the cell cycle phase distribution after debris exclusion.
The progression through the cell cycle phases induced by treatment were evaluated by flow cytometry using a FACSCanto II flow cytometer. Data analysis were performed using the ModFit 3.2 program which offers the possibility of evaluating the cell cycle phases distribution (G0/G1, S, G2 + M).
(In general: Flow cytometry measures light scatter and fluorescence of single cells or particles in a stream.)

The compound `Oc1ccc(C=Cc2cc(O)cc(O)c2)cc1` [RSV, 3,5,4′-trihydroxystilbene] had a G0/G1% of 39.05% and a G2/M% of 19.41%.
